Results published in US7990502B2, “Liquid-crystal display device” (Fujifilm Corporation, priority 2007, dated 2011).

Experiment: log P value (octanol-water partition coefficient) of the compound capable of mending the humidity dependence
Type: physicochemical
Conditions: octanol-water partition coefficient of the humidity-dependence mending compound used in the second retardation film
From the text: Log P of the compound capable of mending the humidity dependence for use in the invention is preferably from 3 to 10, more preferably from 3 to 7. Using the compound capable of mending the humidity dependence having log P that falls within the above range may reduce the humidity dependence of Re not causing a face condition trouble such as bleeding out, etc.
The log P value means an octanol-water partition coefficient, and it may be determined according to the flask shaking method described in JIS (Japanese Industrial Standards) Z7260-107 (2000). In place of determining it through actual measurement, the octanol-water partition coefficient (log P value) may be estimated according to a computational chemical method or an experimental method. As the computational method, preferably employed are a Crippen's fragmentation method (J. Chem. Inf. Comput. Sci., 27, 21 (1987)), a Viswanadhan's fragmentation method (J. Chem. Inf. Comput. Sci., 29, 163 (1989)), a Broto's fragmentation method (Eur. J. Med. Chem.-Chim. Theor., 19, 71 (1984)). Particularly, the Crippen's fragmentation method (J. Chem. Inf. Comput. Sci., 27, 21 (1987)) is preferably employed. In case where the log P value of a certain compound differs depending on the measurement method or the computational method employed, the compound is preferably judged according to a Crippen's fragmentation method as to whether or not it could fall within the preferred range.

In order of falling logP:
1. CCCCCCCc1ccc(OC(=O)[C@H]2CC[C@H](C(=O)Oc3ccc(CCCCCCC)cc3)CC2)cc1 [D]  11
2. CCc1ccc(OC(=O)[C@H]2CC[C@H](C(=O)Oc3ccc(CC)cc3)CC2)cc1 [Compound A-3]  5.8
3. Cc1ccc(OC(=O)[C@H]2CC[C@H](C(=O)Oc3ccc(C)cc3C)CC2)c(C)c1 [Compound A-6]  5.7
4. O=C(Oc1ccccc1)[C@H]1CC[C@H](C(=O)Oc2ccccc2)CC1 [Compound A-1]  3.7
